Measured values: patent publication US9279157B2, “EMX2 in cancer diagnosis and prognosis” (The Regents of the University of California, priority 2009, dated 2016)
Entries after “also recorded” stand apart in the source; their conditions may differ.

Experiments:
Type in all cases: cell-based, human
[1] = test system: EMX2 expression in NSCLC cell lines; assay: DAC de-methylation treatment of NSCLC cell lines, EMX2 expression by semi-quantitative RT-PCR; conditions: 5 μM DAC, NSCLC / lung cancer cell lines with initially silenced EMX2
Procedure: Reverse transcription-polymerase chain reaction (RT-PCR) was performed in a GeneAmp PCR system 9700 (Applied Biosystems, Foster City, Calif.), using an RT-PCR kit (SuperScript II one-step RT-PCR with Platinum Taq kit; Invitrogen, Carlsbad, Calif.) according to the manufacturer's protocol. Primers for RT-PCR were obtained from Operon Biotechnologies (Huntsville, Ala.). Total RNA of normal human lung was obtained from the Biochain Institute (Hayward, Calif.). Total RNA (500 ng) was used for each reaction. Primer sequences were as follows: human EMX2 DNA, Forward primer; 5′-[…]-3′ (SEQ ID NO: 3), Reverse primer; 5′-[…]-3′ (SEQ ID NO:4).
Human NSCLC cell lines H1299, H322 and A427 were purchased from American Type Culture Collection (ATCC), (Manassas, Va.). These cell lines were cultured in RPMI 1640 supplemented with 10% fetal bovine serum, penicillin (100 IU/mL) and streptomycin (100 μg/mL). All cells were cultured at 37° C. in a humidified incubator with 5% CO2. Total RNA from cell lines was isolated using RNeasy Mini kit (Qiagen). Treatment with 5 μM 5-aza-2′-deoxycytidine (DAC; Sigma) was done according to Clement G. et al., “Epigenetic alteration of the Wnt inhibitory factor-1 promoter occurs early in the carcinogenesis of Barrett's esophagus.” Cancer Sci 99:46-53 (2008).
Cell Culture and 5-Aza-2′-deoxycytidine (DAC) Treatment. […]

[2] = test system: TE-7 cells; assay: DAC treatment negative control, EMX2 expression by semi-quantitative RT-PCR in TE-7; conditions: TE-7 cells that endogenously expressed EMX2
[3] = test system: OE33 cells; assay: DAC de-methylation treatment, EMX2 expression by semi-quantitative RT-PCR in OE33; conditions: OE33 cells that did not originally express EMX2
[4] = test system: H1299 cells stably transfected with EMX2; assay: MTS assay of chemo-synergic effect between EMX2 and cisplatin; conditions: compared with cisplatin or EMX2 alone, cisplatin 0.3 ng/ml (FIG. 23D)
Procedure: The chemo-synergic effect between EMX2 and cisplatin was examined in order to determine whether EMX2 could sensitize NSCLC cells to cisplatin treatment. The H1299 lung cancer cell line was stably transfected with EMX2 The chemo-synergic effect between EMX2 and cisplatin was measured in this cell line by MTS assay (Promega, Madison, Wis.).
Stable EV- or EMX2 transfected cells were plated in 96-well plates at a density of 500 cells per well in 100 μl of culture medium with G418. Medium was changed every three days. Cell viability was evaluated by CELLTITER 96 Aqueous one solution cell proliferation assay (MTS assay) (Promega, Madison, Wis.) on days 1-7. Briefly, 20 μl of reagent was added to each well and incubated in a culture hood for 2 hr. Absorbance at 490 nm was measured with a kinetic microplate reader (Vmax; Molecular Devices, Sunnyvale, Calif.) and was used as a measure of cell number. Experiments were repeated three times.
Proliferation Assays. Stably transfected cells were plated in 96-well plates at a density of 500-1000 cells/well in 100 μl of G418 culture medium. Medium was changed every day. Cell viability was evaluated in triplicate by CellTiter 96 AQueous (Promega) per manufacturer's protocol. […] Colonies were then fixed by 10% formalin, stained with 0.5% crystal violet and counted.

| Structure (SMILES) | EMX2 expression after DAC treatment [1] | EMX2 expression levels after DAC treatment [2] | EMX2 expression after DAC treatment [3] | EMX2 expression after DAC treatment ([3]; listed as 5-aza-DAC) | Suppression of cell proliferation by cisplatin combined with EMX2 [4] |
| --- | --- | --- | --- | --- | --- |
| Nc1ncn([C@H]2C[C@H](O)[C@@H](CO)O2)c(=O)n1 [DAC, 5-aza-2′-deoxycytidine] | restored EMX2 expression levels | not affected | restoration of EMX2 expression | restored | – |
| N.N.[Cl][Pt][Cl] [cisplatin] | – | – | – | – | further enhanced; also recorded: more efficiently suppressed; also recorded: significantly enhanced |
